In ChEMBL document CHEMBL1139458, “Discovery of small-molecule inhibitors of the ATPase activity of human papillomavirus E1 helicase” (J Med Chem, 2004):

Target: T1, DNA helicase/primase complex protein (Herpes simplex virus (type 1 / strain 17), UniProt P10236)
T1 sequence (P10236 whole entry): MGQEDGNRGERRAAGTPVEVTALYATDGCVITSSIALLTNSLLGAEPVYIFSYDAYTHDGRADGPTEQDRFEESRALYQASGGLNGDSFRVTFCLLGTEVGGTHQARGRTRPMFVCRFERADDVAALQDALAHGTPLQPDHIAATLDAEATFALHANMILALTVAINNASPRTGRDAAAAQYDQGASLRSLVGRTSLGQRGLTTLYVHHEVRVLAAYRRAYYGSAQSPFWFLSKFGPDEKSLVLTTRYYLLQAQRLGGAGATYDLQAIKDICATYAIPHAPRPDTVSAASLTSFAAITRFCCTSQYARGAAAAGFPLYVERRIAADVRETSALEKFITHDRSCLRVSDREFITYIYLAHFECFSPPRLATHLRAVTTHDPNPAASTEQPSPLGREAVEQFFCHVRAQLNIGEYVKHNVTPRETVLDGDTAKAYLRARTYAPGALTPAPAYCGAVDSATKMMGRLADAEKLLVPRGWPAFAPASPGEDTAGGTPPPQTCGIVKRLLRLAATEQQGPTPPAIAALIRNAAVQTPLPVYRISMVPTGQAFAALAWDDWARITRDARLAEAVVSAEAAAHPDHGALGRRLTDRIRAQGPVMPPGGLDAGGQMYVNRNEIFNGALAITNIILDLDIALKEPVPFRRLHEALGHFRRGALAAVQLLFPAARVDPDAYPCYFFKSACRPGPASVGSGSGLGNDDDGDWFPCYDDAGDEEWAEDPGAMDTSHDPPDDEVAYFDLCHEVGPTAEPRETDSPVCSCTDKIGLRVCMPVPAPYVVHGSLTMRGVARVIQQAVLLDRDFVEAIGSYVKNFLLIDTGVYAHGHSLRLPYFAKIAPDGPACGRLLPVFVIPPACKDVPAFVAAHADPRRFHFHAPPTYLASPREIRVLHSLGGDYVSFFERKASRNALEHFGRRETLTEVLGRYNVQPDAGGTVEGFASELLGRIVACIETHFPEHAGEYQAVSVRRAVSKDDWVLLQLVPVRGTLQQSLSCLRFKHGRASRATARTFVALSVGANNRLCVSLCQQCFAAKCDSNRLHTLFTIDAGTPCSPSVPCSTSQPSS
Test: Inhibitory concentration against herpes simplex virus helicase primase 8 (HSV)

Work on `O=C(O)CS(=O)(=O)c1ccc(-c2ccccc2)cc1` yielded an IC50 greater than 80 µM.
